Experiments:
foam cells = conditions: American Journal of Pathology vol. 146, No.4, 819-826 (1995); cited from earlier work
macrophage foam cell = test: Inhibition of macrophage foam cell formation in high-cholesterol-diet hamsters (aortic arch); assay type: in vivo, golden Syrian hamster; conditions: 6 weeks, 8 hamsters, p < 0.01 vs HCD group (HCD 25.7 ± 2.7)
Source text: Experiment 3 Inhibition of macrophage foam cell formation
Male golden Syrian hamster of 12 weeks old, were used for the experiment. Hamsters were classified into a group wherein hamsters were fed with usual powder diet (OD group), a group wherein hamsters were fed with diet containing high cholesterol (2%) (HCD group) and a group wherein hamsters were fed with diet containing high cholesterol (2%) and the compound I-36 of the present invention (HCD +I-36 group) and animals in each group were fed for 6 weeks. The added amount of the compound 1-36 of the present invention was 0.01, 0.03 and 0.1% and they were equivalent to 6, 19, 66 mg/kg, respectively, calculated from food intake. Each group contains 8 hamsters.
After feeding for 6 weeks, hamsters were anesthetized with pentobarbital and subjected to thoracotomy to expose a heart. Arch of the aorta was removed after reperfusion with phosphate-buffered 10% formalin solution from the ventricle. The arch of the aorta was opened longitudinally and the number of foam cells in a microphotograph after staining with oil red O was counted with a colony counter to calculate the number per aortic arch area. The significant difference between the groups was examined by Dunnett's multiple comparison test.

[1] = target: T1, endothelin B (ETB) receptor (Sus scrofa, UniProt P35463); test: Measurement of affinity for endothelin B (ETB) receptor: inhibition of 125I-labeled endothelin-3 binding to COS-7 cells expressing pig ETB receptor; conditions: 125I-endothelin-3 25 pM, 37° C., 1 h
T1 construct: expressed in transfected cells; host or cells: COS-7
T1 sequence (P35463 27-443): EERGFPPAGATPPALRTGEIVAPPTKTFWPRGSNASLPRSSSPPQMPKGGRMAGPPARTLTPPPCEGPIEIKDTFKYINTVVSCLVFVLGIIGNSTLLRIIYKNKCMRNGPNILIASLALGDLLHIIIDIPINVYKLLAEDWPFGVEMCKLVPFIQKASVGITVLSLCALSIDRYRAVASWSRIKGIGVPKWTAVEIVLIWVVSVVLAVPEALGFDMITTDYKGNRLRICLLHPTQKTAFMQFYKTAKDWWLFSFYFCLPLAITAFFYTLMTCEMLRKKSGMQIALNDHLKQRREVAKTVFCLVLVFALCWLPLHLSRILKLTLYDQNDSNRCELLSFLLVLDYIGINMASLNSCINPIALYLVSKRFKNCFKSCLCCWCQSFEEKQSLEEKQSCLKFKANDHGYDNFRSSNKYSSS
Protocol: Experiment 2 Measurement of affinity for endothelin B (ETB) receptor
Affinities for the ETB receptor were measured from the potency for inhibiting ^125 I-labeled endothelin-3 binding to COS-7 cells expressing the pig endothelin ETB receptor. In brief, a plasmid vector to which the pig endothelin ETB receptor gene was inserted was transfected to COS-7 cells by the lipofectin method. After the cells were washed with buffer, 10^3 -10^4 cells were dispersed in HEPES buffered Hanks' solution (0.1 ml) containing 25 pM of 125I labeled endothelin-3 and various kinds of protease inhibitors and incubated in the presence or absence of the compound of the present invention at 37° C. for 1 h. After completion of the reaction, the radioactivity bound was trapped by a glass fiber filter and measured with a gamma counter. Specific binding was calculated by subtracting the non-specific binding measured in the presence of 10^-7 M non-radioactive endothelin-3 from the total binding.

[2] = target: T2, endothelin A (ETA) receptor (Rattus norvegicus, UniProt P26684); test: Measurement of affinity for endothelin A (ETA) receptor: inhibition of 125I-labeled endothelin-1 binding to A7r5 cells; conditions: 125I-endothelin-1 8.3 pM, A7r5 cells derived from rat aorta, 37° C., 1 h
T2 construct: smooth muscle A7r5 cells derived from rat aorta; endogenous in cells; host or cells: A7r5 (rat aorta smooth muscle cells)
T2 sequence (P26684 21-426): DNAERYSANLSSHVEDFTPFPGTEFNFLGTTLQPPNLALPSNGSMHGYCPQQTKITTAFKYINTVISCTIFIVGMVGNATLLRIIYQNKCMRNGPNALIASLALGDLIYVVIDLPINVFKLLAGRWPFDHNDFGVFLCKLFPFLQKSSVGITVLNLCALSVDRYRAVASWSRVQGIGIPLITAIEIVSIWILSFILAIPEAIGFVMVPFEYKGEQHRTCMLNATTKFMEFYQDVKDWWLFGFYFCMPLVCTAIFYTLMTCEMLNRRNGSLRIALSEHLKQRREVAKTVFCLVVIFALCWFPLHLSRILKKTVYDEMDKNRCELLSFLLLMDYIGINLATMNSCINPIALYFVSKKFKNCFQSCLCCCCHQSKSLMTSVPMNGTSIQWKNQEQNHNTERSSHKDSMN
Protocol: Experiment 1 Measurement of affinity for endothelin A (ETA) receptor
Affinities for the ETA receptor were measured from the potency for inhibition of binding of ^125 I-labeled endotheline-1 to smooth muscle A7r5 cells derived from rat aorta. In brief, the cells cultured in 48-well plates were washed with buffer, and incubated in 0.3 ml of Hepes buffered Hanks' solution containing labeled endothelin-1 (8.3 pM) and various kinds of protease inhibitors in the presence or absence of the compound of the present invention at 37° C. for 1 h. The incubation was terminated by rapid removal of the incubation medium and the cells were washed with a HEPES buffered Hanks' solution. The radioactivity of ^125 I-labeled endothelin-1 bound to the cells was determined with a gamma-counter. The specific binding was calculated by subtracting the non-specific binding which was determined in the presence of 10^-7 M non radioactive endothelin-1 from the total binding.

[3] = Effect on peripheral circulatory insufficiency (tail blood flow after 3° C. immersion); assay type: in vivo, Wistar rats
Protocol: Experiment 4 Effect on peripheral circulatory insufficiency
Using Wistar rats, the peripheral circulatory insufficiency model was produced by immersing the rat tail tip (2-3 cm) in 1° C. water for 9 h, and experiments were performed at 3 weeks after above treatment. Tail blood flows in peripheral circulatory insufficiency rats were measured with laser-Doppler flowmetry with a tablet probe during immersing the whole tail in 3° C. water (30 min) The probe was held directly adjacent to the ventral surface of the tail, approximately 14 cm from the tip. To evaluate the effects of the compound of the present invention, peripheral circulatory insufficiency rats administered by the compound of the present invention (I-36, 30 mg/kg, po) at 2 h before 3° C. immersion.
In the normal Wistar rats, tail blood flow was transiently declined after 3° C. immersion, and gradually recovered up to about 70 % of basal level at 25 to 30 min after the immertion (normal rat). On the other hand, in the peripheral circulatory insufficiency rats, the tail blood flow measured immediately before administration of the compound of the present invention recovered to no more than 40% of basal level (peripheral circulatory insufficiency rat). […] Three days after administration of the compound of the present invention, when the circulatory effects of the compound was supposed to fully disappear, tail blood flows during 3° C. immersion were measured again. […] For statistic analysis, Dunnett's test was used.

| SMILES | IC50 [1] [nM] | IC50 [2] [nM] | other results |
| --- | --- | --- | --- |
| Cc1noc(NS(=O)(=O)c2cccc3c(N(C)C)cccc23)c1C [BMS-182874] | – | – | number and size of foam cells (foam cells): reduce the number and size of foam cells |
| COc1ccc(C2=C(C(=O)O)C(c3ccc4c(c3)OCO4)Oc3ccc(OC(C)C)cc32)cc1 (stereo not drawn) [Compound I-36, 2-(Benz[1,3]dioxol-5-yl)-6-isopropoxy-4-(4-methoxy-phenyl)-2H-chromen-3-carboxylic acid] | 180 | 0.89 | Aortic foam cell numbers / mm^2 (Mean ± SE) (macrophage foam cell; HCD + 0.01% I-36 in diet (equivalent to 6 mg/kg)): 10.1 ± 1.7 / mm^2; Aortic foam cell numbers / mm^2 (Mean ± SE) (macrophage foam cell; HCD + 0.03% I-36 in diet (equivalent to 19 mg/kg)): 9.1 ± 0.8 / mm^2; Aortic foam cell numbers / mm^2 (Mean ± SE) (macrophage foam cell; HCD + 0.1% I-36 in diet (equivalent to 66 mg/kg)): 8.8 ± 1.1 / mm^2; skin blood flow (%), average from 20-25 min after cold exposure ([3]; insufficiency rat + I-36, 30 mg/kg, po, 2 h before 3° C. immersion, n = 4, p < 0.01 vs insufficiency rat control (37.20 ± 3.29)): 62.02 ± 1.23%; recovery of the tail blood flow ([3]; insufficiency rat + I-36, 30 mg/kg, po, in words): remarkable and significant; recovery of the blood flow after wash out ([3]; three days after administration of I-36, in words): same as that before administration; skin blood flow (%), average from 20-25 min after cold exposure ([3]; wash out: three days after administration of I-36, n = 4): 44.19 ± 5.83% |
| CCCOC1=C(C(=O)O)C(c2ccc3c(c2)OCO3)Oc2ccc(OC(C)C)cc21 (stereo not drawn) [Compound I-56] | 1300 | 1.5 | – |
| CCCCOC1=C(C(=O)O)C(c2ccc3c(c2)OCO3)Oc2ccc(OC(C)C)cc21 (stereo not drawn) [Compound I-57] | 780 | 0.41 | – |
| CCCCCOC1=C(C(=O)O)C(c2ccc3c(c2)OCO3)Oc2ccc(OC(C)C)cc21 (stereo not drawn) [Compound I-58] | 150 | 0.48 | – |
| CC(C)OC1=C(C(=O)O)C(c2ccc3c(c2)OCO3)Oc2ccc(OC(C)C)cc21 (stereo not drawn) [Compound I-59] | 730 | 0.81 | – |
| C=CCCCOC1=C(C(=O)O)C(c2ccc3c(c2)OCO3)Oc2ccc(OC(C)C)cc21 (stereo not drawn) [Compound I-65, 2-(Benzo[1,3]dioxol-5-yl)-6-isopropoxy-4-(4-pentenyloxy-1-yl)-2H-chromen-3-carboxylic acid] | 130 | 0.38 | – |
| CCCCCCOC1=C(C(=O)O)C(c2ccc3c(c2)OCO3)Oc2ccc(OC(C)C)cc21 (stereo not drawn) [Compound I-67] | 78 | 0.67 | – |
| CC(C)Oc1ccc2c(c1)C(OCCCCCO)=C(C(=O)O)C(c1ccc3c(c1)OCO3)O2 (stereo not drawn) [Compound I-68] | 880 | 0.95 | – |
| COC(CCCOC1=C(C(=O)O)C(c2ccc3c(c2)OCO3)Oc2ccc(OC(C)C)cc21)OC (stereo not drawn) [Compound I-70] | 270 | 1.2 | – |
| COc1ccc(OC2=C(C(=O)O)C(c3ccc4c(c3)OCO4)Oc3ccc(OC(C)C)cc32)cc1 (stereo not drawn) [Compound I-74, 2-(Benzo[1,3]dioxol-5-yl)-6-isopropoxy-4-(4-methoxy-phenoxy)-2H-chromen-3-carboxylic acid] | 58 | 0.21 | – |
| CCCCC1=C(C(=O)O)C(c2ccc3c(c2)OCO3)Oc2ccc(OC(C)C)cc21 (stereo not drawn) [Compound I-76] | 610 | 0.73 | – |
| CCCCCC1=C(C(=O)O)C(c2ccc3c(c2)OCO3)Oc2ccc(OC(C)C)cc21 (stereo not drawn) [Compound I-77, 2-(Benzo[1,3]dioxol-5-yl)-6-isopropoxy-4-pentyl-2H-chromen-3-carboxylic acid] | 150 | 0.32 | – |
| CC(C)Oc1ccc2c(c1)C(C(C)C)=C(C(=O)O)C(c1ccc3c(c1)OCO3)O2 (stereo not drawn) [Compound I-78] | 2500 | 0.63 | – |
| CC(C)Oc1ccc2c(c1)C(C1CCCC1)=C(C(=O)O)C(c1ccc3c(c1)OCO3)O2 (stereo not drawn) [Compound I-79, 2-(Benzo[1,3]dioxol-5-yl)-4-cyclopentyl-6-isopropoxy-2H-chromen-3-carboxylic acid] | 350 | 0.53 | – |
| Cc1ccc(C2=C(C(=O)O)C(c3ccc4c(c3)OCO4)Oc3ccc(OC(C)C)cc32)s1 (stereo not drawn) [Compound I-80, 2-(Benzo[1,3]dioxol-5-yl)-6-isopropoxy-4-(5-methyl-thiophen-2-yl)-2H-chromen-3-carboxylic acid] | 1800 | 1 | – |
| COc1ccc(CC2=C(C(=O)O)C(c3ccc4c(c3)OCO4)Oc3ccc(OC(C)C)cc32)cc1 (stereo not drawn) [Compound I-81, 2-(Benzo[1,3]dioxol-5-yl)-6-isopropoxy-4-(4-methoxy-benzyl)-2H-chromen-3-carboxylic acid] | 85 | 0.5 | – |
| CCCCCCC1=C(C(=O)O)C(c2ccc3c(c2)OCO3)Oc2ccc(OC(C)C)cc21 (stereo not drawn) [Compound I-82] | 69 | 0.62 | – |
| CC(C)CCC1=C(C(=O)O)C(c2ccc3c(c2)OCO3)Oc2ccc(OC(C)C)cc21 (stereo not drawn) [Compound I-83] | 480 | 1.9 | – |
| COCCCC1=C(C(=O)O)C(c2ccc3c(c2)OCO3)Oc2ccc(OC(C)C)cc21 (stereo not drawn) [Compound I-84] | 710 | 1.8 | – |
| CC(C)Oc1ccc2c(c1)C(CC1CCCCC1)=C(C(=O)O)C(c1ccc3c(c1)OCO3)O2 (stereo not drawn) [Compound I-85] | 46 | 0.58 | – |
| C=CCCC1=C(C(=O)O)C(c2ccc3c(c2)OCO3)Oc2ccc(OC(C)C)cc21 (stereo not drawn) [Compound I-86] | 950 | 2.7 | – |
| CC(C)Oc1ccc2c(c1)C(CCCCO)=C(C(=O)O)C(c1ccc3c(c1)OCO3)O2 (stereo not drawn) [Compound I-87] | 1800 | 2.3 | – |
| CCCCSC1=C(C(=O)O)C(c2ccc3c(c2)OCO3)Oc2ccc(OC(C)C)cc21 (stereo not drawn) [Compound I-89, 2-(Benzo[1,3]dioxol-5-yl)-4-butylsulfanyl-6-isopropoxy-2H-chromen-3-carboxylic acid] | 100 | 0.27 | – |

Source: patent US6218427A, “Chromene-3-carboxylate derivatives” (Shionogi & Co., Ltd., priority 1996, dated 2001)
